Patent US11021457B2, “Class of isoindolone-imide ring-1,3-dione-2-ene compounds, composition and use thereof” (WIGEN BIOMEDICINE TECHNOLOGY (SHANGHAI) CO., LTD., priority 2017, dated 2021)
Where two headings read alike, the source gives them in different places.

How the values were obtained:
K562 = assay: Inhibition of tumor cell proliferation, CellTiter-Glo, K562; assay type: cell-based; conditions: compound concentration 50 μM, 72 hours; for cell survival rate (%) at 50 µM: Homo sapiens, K562, read-out: Inhibitory activity against proliferation (cell survival rate) K562
Procedure, shortened: (§1)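 Activity is graded from survival at 50 μM: + for 60 to under 90%, ++ for over 30 to 60%, +++ for 30% or less. Survival was measured luminescently (CellTiter-Glo) 72 h after dosing, relative to untreated and blank wells; 2000-10000 cells/well, 37° C, 5% CO2.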

RPMI-8226 = assay: Inhibition of tumor cell proliferation, CellTiter-Glo, RPMI-8226; assay type: cell-based; conditions: compound concentration 50 μM, 72 hours; for cell survival rate (% of control) at 50 µM: Homo sapiens, RPMI-8226, read-out: Inhibitory activity against proliferation (cell survival rate) RPMI-8226
Procedure, shortened: as §1

LC3B = LC3B (Homo sapiens (Human), UniProt Q9GZQ8); assay: Fluorescence polarization experiment targeting LC3B (GST-LC3B with FITC-labeled peptide)
MDA-MB-453 = assay: Inhibition of tumor cell proliferation, CellTiter-Glo, MDA-MB-453; assay type: cell-based; conditions: compound concentration 50 μM, 72 hours; for cell survival rate (%) at 50 µM: Homo sapiens, MDA-MB-453, read-out: Inhibitory activity against proliferation (cell survival rate) MDA-MB-453
Procedure, shortened: as §1

A549 = assay: Inhibition of tumor cell proliferation, CellTiter-Glo, A549; assay type: cell-based; conditions: compound concentration 50 μM, 72 hours; for cell survival rate (% of control) at 50 µM: Homo sapiens, A549, read-out: Inhibitory activity against proliferation (cell survival rate) A549
Procedure, shortened: as §1

BxPC-3 = assay: Inhibition of tumor cell proliferation, CellTiter-Glo, BxPC-3; assay type: cell-based; conditions: compound concentration 50 μM, 72 hours; for cell survival rate (%) at 50 µM: Homo sapiens, BXPC-3, read-out: Inhibitory activity against proliferation (cell survival rate) BxPC-3
Procedure, shortened: as §1

SU-DHL6 = assay: Inhibition of tumor cell proliferation, CellTiter-Glo, SU-DHL6; assay type: cell-based; conditions: compound concentration 50 μM, 72 hours; for cell survival rate (% of control) at 50 µM: Homo sapiens, SU-DHL-6, read-out: Inhibitory activity against proliferation (cell survival rate) SU-DHL6
Procedure, shortened: as §1

[1] = GST-LC3B 180 nM, FITC-labeled peptide 18 nM, 25° C.

| SMILES | Inhibitory activity against proliferation (cell survival rate) K562 (K562) | Inhibitory activity against proliferation (cell survival rate) RPMI-8226 (RPMI-8226) | IC50 (LC3B; [1]) [µM] | Inhibitory activity against proliferation (cell survival rate) MDA-MB-453 (MDA-MB-453) | Inhibitory activity against proliferation (cell survival rate) A549 (A549) | Inhibitory activity against proliferation (cell survival rate) BxPC-3 (BxPC-3) | Inhibitory activity against proliferation (cell survival rate) SU-DHL6 (SU-DHL6) | cell survival rate (%) at 50 µM (K562) [%] | cell survival rate (% of control) at 50 µM (RPMI-8226) [%] | IC50 (LC3B) [µM] | cell survival rate (%) at 50 µM (MDA-MB-453) [%] | cell survival rate (% of control) at 50 µM (A549) [%] | cell survival rate (%) at 50 µM (BxPC-3) [%] | cell survival rate (% of control) at 50 µM (SU-DHL6) [%] |
| --- | --- | --- | --- | --- | --- | --- | --- | --- | --- | --- | --- | --- | --- | --- |
| Cc1ccc(C2CC(=O)C(=CNc3cccc4c3CN(C3CCC(=O)NC3=O)C4=O)C(=O)C2)c(Br)c1 (stereo not shown) [Compound 20] | ++ (30<survival rate (%)≤60) | + (60≤survival rate (%)<90) | < 3 | + (60≤survival rate (%)<90) | ++ (30<survival rate (%)≤60) | + (60≤survival rate (%)<90) | ++ (30<survival rate (%)≤60) |  |  |  |  |  |  |  |
| O=C1CCC(N2Cc3c(NC=C4C(=O)CC(c5ccc(C(F)(F)F)cc5)CC4=O)cccc3C2=O)C(=O)N1 (stereo not shown) [Compound 21] | ++ (30<survival rate (%)≤60) | + (60≤survival rate (%)<90) | < 3 | + (60≤survival rate (%)<90) | ++ (30<survival rate (%)≤60) | + (60≤survival rate (%)<90) | + (60≤survival rate (%)<90) |  |  |  |  |  |  |  |
| CCOC(=O)C1C(=O)C(=CNc2cccc3c2CN(C2CCC(=O)NC2=O)C3=O)C(=O)CC1c1cccc2[nH]ccc12 (stereo not shown) [Compound 25] |  |  |  |  |  |  |  | 60 to 90 | 60 to 90 | < 3 | 60 to 90 | 60 to 90 | 60 to 90 | 60 to 90 |
| CCOC(=O)C1C(=O)C(=CNc2cccc3c2C(=O)N(C2CCC(=O)NC2=O)C3=O)C(=O)CC1c1cccc2[nH]ccc12 (stereo not shown) [Compound 26] |  |  |  |  |  |  |  | 60 to 90 | 60 to 90 | < 3 | 60 to 90 | 60 to 90 | 60 to 90 | 60 to 90 |
| O=C1CCC(N2Cc3c(NC=C4C(=O)CC(c5c[nH]c6ccccc56)CC4=O)cccc3C2=O)C(=O)N1 (stereo not shown) [Compound 38] | +++ (survival rate (%)≤30) | +++ (survival rate (%)≤30) | < 3 | +++ (survival rate (%)≤30) | +++ (survival rate (%)≤30) | ++ (30<survival rate (%)≤60) | +++ (survival rate (%)≤30) |  |  |  |  |  |  |  |
| O=C1CCC(N2Cc3c(NC=C4C(=O)CC(c5cccc6[nH]ncc56)CC4=O)cccc3C2=O)C(=O)N1 (stereo not shown) [Compound 39] | +++ (survival rate (%)≤30) | + (60≤survival rate (%)<90) | < 3 | +++ (survival rate (%)≤30) | + (60≤survival rate (%)<90) | ++ (30<survival rate (%)≤60) | ++ (30<survival rate (%)≤60) |  |  |  |  |  |  |  |
| O=C1CCC(N2Cc3c(NC=C4C(=O)CC(c5c[nH]c6cccc(F)c56)CC4=O)cccc3C2=O)C(=O)N1 (stereo not shown) [Compound 41] | +++ (survival rate (%)≤30) | + (60≤survival rate (%)<90) | < 3 | + (60≤survival rate (%)<90) | +++ (survival rate (%)≤30) | + (60≤survival rate (%)<90) | + (60≤survival rate (%)<90) |  |  |  |  |  |  |  |
| O=C1CCC(N2Cc3c(NC(=O)CNC=C4C(=O)CC(c5ccccc5)CC4=O)cccc3C2=O)C(=O)N1 (stereo not shown) [Compound 42] | ++ (30<survival rate (%)≤60) | ++ (30<survival rate (%)≤60) | 100 to 1000 | + (60≤survival rate (%)<90) | ++ (30<survival rate (%)≤60) | + (60≤survival rate (%)<90) | + (60≤survival rate (%)<90) |  |  |  |  |  |  |  |
| C[C@@H](CC(=O)Nc1cccc2c1CN(C1CCC(=O)NC1=O)C2=O)NC=C1C(=O)CC(c2ccccc2)CC1=O (stereo partly shown) [Compound 44] | +++ (survival rate (%)≤30) | +++ (survival rate (%)≤30) | 100 to 1000 | + (60≤survival rate (%)<90) | +++ (survival rate (%)≤30) | + (60≤survival rate (%)<90) | +++ (survival rate (%)≤30) |  |  |  |  |  |  |  |
| O=C1CCC(N2Cc3c(NC(=O)CCNC=C4C(=O)CC(c5ccccc5)CC4=O)cccc3C2=O)C(=O)N1 (stereo not shown) [Compound 45] | + (60≤survival rate (%)<90) | + (60≤survival rate (%)<90) | 100 to 1000 | + (60≤survival rate (%)<90) | + (60≤survival rate (%)<90) | + (60≤survival rate (%)<90) | + (60≤survival rate (%)<90) |  |  |  |  |  |  |  |
| O=C1CCC(N2Cc3c(NC(=O)CCCCNC=C4C(=O)CC(c5ccccc5)CC4=O)cccc3C2=O)C(=O)N1 (stereo not shown) [Compound 46] | ++ (30<survival rate (%)≤60) | ++ (30<survival rate (%)≤60) | 100 to 1000 | +++ (survival rate (%)≤30) | +++ (survival rate (%)≤30) | + (60≤survival rate (%)<90) | + (60≤survival rate (%)<90) |  |  |  |  |  |  |  |
| O=C1CCC(N2Cc3c(NC(=O)CCCNC=C4C(=O)CC(c5ccccc5)CC4=O)cccc3C2=O)C(=O)N1 (stereo not shown) [Compound 47] | + (60≤survival rate (%)<90) | + (60≤survival rate (%)<90) | 100 to 1000 | +++ (survival rate (%)≤30) | + (60≤survival rate (%)<90) | ++ (30<survival rate (%)≤60) | +++ (survival rate (%)≤30) |  |  |  |  |  |  |  |
| O=C1CCC(N2Cc3c(NC(=O)COCCNC=C4C(=O)CC(c5ccccc5)CC4=O)cccc3C2=O)C(=O)N1 (stereo not shown) [Compound 48] | +++ (survival rate (%)≤30) | +++ (survival rate (%)≤30) | 100 to 1000 | +++ (survival rate (%)≤30) | +++ (survival rate (%)≤30) | + (60≤survival rate (%)<90) | +++ (survival rate (%)≤30) |  |  |  |  |  |  |  |
